1 compound from article PMC5560858, “A lectin receptor kinase as a potential sensor for extracellular nicotinamide adenine dinucleotide in Arabidopsis thaliana” (eLife, 2017) can be followed below.

The target of the assay is T1, LecRK-I.8 (lectin receptor kinase-I.8, At5g60280) (Arabidopsis thaliana, UniProt Q9LSR9).
T1 construct: gene LECRK18; extracellular lectin domain (amino acids 23 to 283) fused to GFP (eLecRK-I.8-GFP)
Description: […]-NAD+ radioligand saturation binding to immunoprecipitated eLecRK-I.8-GFP; also competition, and binding to recombinant MBP-eLecRK-I.[…].

T1 sequence (Q9LSR9 23-283): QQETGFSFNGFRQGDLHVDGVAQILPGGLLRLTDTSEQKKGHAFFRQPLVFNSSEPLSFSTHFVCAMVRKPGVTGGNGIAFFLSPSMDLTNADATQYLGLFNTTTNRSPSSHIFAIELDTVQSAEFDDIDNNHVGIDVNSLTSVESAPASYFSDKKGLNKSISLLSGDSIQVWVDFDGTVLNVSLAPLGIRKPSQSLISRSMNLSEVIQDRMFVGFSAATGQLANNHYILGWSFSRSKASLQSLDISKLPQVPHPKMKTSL

In the case of `NC(=O)c1ccc[n+]([C@@H]2O[C@H](COP(=O)([O-])OP(=O)(O)OC[C@H]3O[C@@H](n4cnc5c(N)ncnc54)[C@H](O)[C@@H]3O)[C@@H](O)[C@H]2O)c1` [NAD+], the Kd was found to be 437 ± 105 nM.

By Kd is commonly meant a measure of binding affinity in units of concentration.
